# Assay results as given in patent publication US20050096392A1, “Use of creatine pyruvate for increasing stamina during highly intensive intermittent physical exertion” (priority 2002, published 2005).
# Columns and labels:
# [1] = Double-blind study, anthropometric data; format: in vivo, human
# Description: In a double-blind study, creatine pyruvate (A) and placebo (B) were tested. The male experimental subjects (n=32; age: 18 to 32) were divided into groups, each of n=16, so that the maximum oxygen consumption per kilogram of body weight was on average the same in the groups, and the types of sport undertaken were usually distributed the same as far as possible. This led to the fact that the mean strength in the intermittent studies was not the same. The test subjects of group A were administered 5.0 g of creatine pyruvate per day over a period of 28 days. The initial test (IT) was carried out on the 1st day, and the closing test (CT) on the 29th day. In the morning between 8 and 11 o'clock fasted blood sampling, record of anthropometric data; standardized breakfast; then intermittent test of the lower arm musculature. […] The circumference of the thickest part of the lower arm increased in group A (p<0.005).
# [2] = design: species or system human; details: in vivo
# Description: (§1) In a double-blind study, creatine pyruvate (A) and placebo (B) were tested. The male experimental subjects (n=32; age: 18 to 32) were divided into groups, each of n=16, so that the maximum oxygen consumption per kilogram of body weight was on average the same in the groups, and the types of sport undertaken were usually distributed the same as far as possible. This led to the fact that the mean strength in the intermittent studies was not the same. The test subjects of group A were administered 5.0 g of creatine pyruvate per day over a period of 28 days. The initial test (IT) was carried out on the 1st day, and the closing test (CT) on the 29th day. In the morning between 8 and 11 o'clock fasted blood sampling, record of anthropometric data; standardized breakfast; then intermittent test of the lower arm musculature.
# [3] = test system: lower arm musculature; experiment: Intermittent test with the lower arm musculature, mechanical parameters; format: in vivo, human
# Description: as §1, with “day.” for “day. In the morning between 8 and 11 o'clock fasted blood sampling, record of anthropometric data; standardized breakfast; then intermittent test of the lower arm musculature.”
# (§2) The arm of the seated test subjects is positioned extended (horizontally) at the side at shoulder height. The hand lies on an adjustable-weight gripper (stroke length: 3 cm). The arm is supported at the elbow. The test subjects must perform highly intensive intermittent work, for which they compress the adjustable-weight gripper at the maximum possible frequency. The weight in the basket is 80% of the maximum weight achieved in a preliminary test in which the load, starting at 7.5 kg, is increased by 2.5 kg every 3 minutes. The contraction frequency is 24/min. The maximum weight is reached when the 3 cm stroke length can no longer be overcome. Blood is taken from the cubital vein on the working arm. The skin blood flow is reduced by cooling. Blood was taken in each case before and after the 1st, 2nd, 6th, 9th and 10th period.
# Via an inductive distance measurer on the adjustable-weight gripper, the stroke length of the weight basket was measured. From the signal, 4 measurements can be obtained. • 1. Contraction rate • 2. Stroke length • 3. Duration of the total contraction • 4. Integral of stroke length over time
# The force is the mean force during the shortening phase, not the point-measurement maximum force. It is only the force which was developed additionally to the force necessary to overcome the force of gravity. In addition, the relaxation rate and the contraction frequency were determined. The evaluation was started with the fourth contraction. Thereafter, each contraction was evaluated over 12 seconds. The mechanical parameters were determined in the 1st, 2nd, 6th and 9th interval.
# [4] = test system: lower arm musculature; experiment: Intermittent test with the lower arm musculature, blood tests and acid-base status; format: in vivo, human
# Description: as §1, with “day.” for “day. In the morning between 8 and 11 o'clock fasted blood sampling, record of anthropometric data; standardized breakfast; then intermittent test of the lower arm musculature.”
# as §2, with “Blood was taken in each case before and after the 1st, 2nd, 6th, 9th and 10th period.” left out
# [5] = closing test, day 29, after 5.0 g per day over 28 days
# [6] = initial vs closing test, 5.0 g per day over 28 days
# [7] = initial vs closing test, p<0.005
# [8] = administration of creatine pyruvate
# [9] = highly intensive intermittent work, 80% of maximum weight, analysis of variance, p<0.01
substance,measurement,setting,value
creatine pyruvate,"BIA fat measurement, CT mean",[1]; [5],16.63 kg
same,"BIA water measurement, CT mean",[1]; [5],47.39 kg
same,"Body fat (skinfold), CT mean",[1]; [5],11.59%
same,"Body weight, CT mean",[1]; [5],83.20 kg
same,"Circumference of lower elbow, CT mean",[1]; [5],29.62 cm
same,"Circumference of thickest point of the arm, CT mean",[1]; [5],29.67 cm
same,"BIA fat measurement, IT mean","[1]; initial test, day 1",16.69 kg
same,"BIA water measurement, IT mean","[1]; initial test, day 1",46.64 kg
same,"Body fat (skinfold), IT mean","[1]; initial test, day 1",11.33%
same,"Circumference of lower elbow, IT mean","[1]; initial test, day 1",28.94 cm
same,"Circumference of thickest point of the arm, IT mean","[1]; initial test, day 1",29.01 cm
same,"Body weight, IT mean","[1]; initial test, day 1, group A, 5.0 g per day over 28 days",81.70 kg
same,Change of body fat content (skinfold thickness and BIA),[1]; [6],no change in body fat content
same,Change of body weight,[1]; [6],increased significantly
same,Change of body fat content (skinfold thickness and BIA),"[1]; initial vs closing test, 5.0 g per day over 28 days, listed as A",remained the same
same,Change of body H2O,"[1]; initial vs closing test, one-sided test, p<0.05",increases in body H2O were significant
same,Change of circumference at the epicondyles,[1]; [7],The same applied
same,Change of circumference of the thickest part of the lower arm,[1]; [7],increased
same,Change of HB,[2],not different
same,Change of Hct,[2],not different
same,Change of LDL cholesterol,[2],just above the level of significance
same,Change of leukocyte number,[2],no difference
same,Change of number of erythrocytes,[2],decreased significantly
same,Change of uric acid concentration,[2],significant decrease
same,"Creatinine, CT mean",[2],1.19
same,"Creatinine, IT mean",[2],1.07 mg/dL
same,Effect on fat metabolism at rest,[2],no effect
same,Effects on kidney and liver function and fat metabolism parameters,[2],no adverse effects
same,"Erythrocytes, CT mean",[2],4.96
same,"Erythrocytes, IT mean",[2],5.3 10^6/µL
same,"Hb, CT mean",[2],15.4 g/dL
same,"Hb, IT mean",[2],15.56
same,"Hct, CT mean",[2],45.13
same,"Hct, IT mean",[2],45.5%
same,"Leukocytes, CT mean",[2],9386.67
same,"Leukocytes, IT mean",[2],8980 µL⁻¹
same,"PT, CT mean",[2],6.20
same,"PT, IT mean",[2],5.40
same,"Urea, CT mean",[2],30.00
same,"Urea, IT mean",[2],34.07
same,"Uric acid, CT mean",[2],5.29 mg/dL
same,"Uric acid, IT mean",[2],5.64 mg/dL
same,Muscle fatigue under highly intensive intermittent exertion,[3]; [8],significant reduction in muscle fatigue
same,Relaxation rate,"[3]; highly intensive intermittent work, 80% of maximum weight",showed a tendency to increase
same,Power calculated from the shortening rate,"[3]; highly intensive intermittent work, 80% of maximum weight, analysis of variance, p<0.005",increased in all intervals
same,Contraction frequency,[3]; [9],increased in all intervals
same,Force,[3]; [9],increased in all intervals
same,Performance in highly intensive exertion,[3]; short exertion and final intervals,significant increase in performance
same,Overacidification of muscle tissue in highly intensive intermittent exertion,[4]; [8],"does not occur, or only occurs to a very slight extent"
same,Rise of maximum values during exertion (parameter not named at the place),"[4]; t test for paired random samples, p<0.002",significantly lower rise
